What all share (format): cell-based, human
One assay has as its system RH30 cells. Nature of the assay: MTT cell viability assay, RH30. The conditions noted are these: RH30 (aRMS), 48 h. The procedure: (§1) RH30 human aRMS cells (kindly provided by Associate Professor Judith Davie, Southern Illinois University), AX-OH-1 human aRMS and FL-OH-1 human eRMS cells (kindly provided by Professor Stefan Bath, University of Cape Town) were cultured in Roswell Park Memorial Institute Medium (RPMI)-1640 (Sigma Aldrich, Missouri, USA). […] Cell morphology was monitored using an Olympus CKX41 inverted microscope (MSAC Ltd, UK) and imaged with an EVOS™ XL AMEX1000 Core Imaging System (Thermo Fisher Scientific, Massachusetts, USA).
(§2) Cells were seeded in 96-well plates and treated the next day with a range of AJ-5 concentrations (0.1–1.0 μM) or vehicle ([…]) for 48 h. Cell viability was measured using the 3-(4,5-dimethylthiazol-2-yl)-2,5-diphenyl-trazolium bromide (MTT) assay (11465007001; Sigma Aldrich) according to the manufacturer’s instructions. Mean cell viability was calculated as a percentage of the mean vehicle control. At least three independent experiments in quadruplicate were performed from which the half maximal inhibitory concentration (IC50) was determined using GraphPad Prism version 6.0 (GraphPad Software, California, USA). The selectivity index (SI) was determined by dividing the IC50 of a normal cell line by the IC50 of a cancer cell line.
For orientation: Formazan colour is commonly taken as a measure of viable cells.

Assay [1] relates to RH30 and RD cells. Put plainly: Cell cycle analysis (FACS, PI) and cyclin western blots. The procedure: Cells were lysed at 4 °C in whole-cell lysis buffer (0.125 M Tris-HCl pH 6.8, 4% SDS, 0.2% glycerol, 0.1% β-mercaptoethanol and a pinch of bromophenol blue) and boiled for 10 min. Proteins were resolved by SDS-PAGE (6–15% gels) and transferred to Hybond ECL membranes (Amersham, UK). The membranes were incubated with primary antibodies: rabbit polyclonal antibodies to phospho-histone H2A.X (Ser139) (#2577), phospho-chk2 (Thr68) (#221), phospho-p38 MAPK (Thr180/Tyr182) (#9211), cleaved caspase-3 (Asp175) (#9661), PARP (#9542), caspase-9 (#9502), LC3B (#2775), p38 MAPK (#9212), rabbit monoclonal antibody to cleaved caspase-7 (Asp198) (D6H1) (#8438), mouse monoclonal antibodies to phospho-ATM (Ser1981) (D6H9) (#5883), Cyclin B1 (V152) (#4135), Caspase-8 (1C12) (#9746), SQSTM1/p62 (D5L7G) (#88588) from Cell Signaling Technology (Massachusetts, USA); mouse monoclonal antibody to p53 (DO-1) (sc-126), rabbit polyclonal antibodies to p21 (C-19) (sc-397), cyclin A (H-432) (sc-751), cyclin B1 (H-433)(sc-752), PARP-1 (H-250) (sc-7150) from Santa Cruz Biotechnology (Texas, USA); rabbit polyclonal antibody to p38 MAP kinase (M0800) from Sigma Aldrich. […] Densitometry readings were obtained using ImageJ v1.50i[58] and protein expression levels were represented as a ratio of protein of interest/p38 loading control normalized to the vehicletreated control sample where appropriate. […]
For orientation: Immunoblotting shows a protein as a band on a membrane.

Assay [2] relates to caspase-3/7, caspase-8, caspase-9, PARP in RH30 and RD cells. Nature of the assay: Caspase-Glo assays and western blots of apoptosis markers. The procedure:
Cells were lysed at 4 °C in whole-cell lysis buffer (0.125 M Tris-HCl pH 6.8, 4% SDS, 0.2% glycerol, 0.1% β-mercaptoethanol and a pinch of bromophenol blue) and boiled for 10 min. Proteins were resolved by SDS-PAGE (6–15% gels) and transferred to Hybond ECL membranes (Amersham, UK). The membranes were incubated with primary antibodies: rabbit polyclonal antibodies to phospho-histone H2A.X (Ser139) (#2577), phospho-chk2 (Thr68) (#221), phospho-p38 MAPK (Thr180/Tyr182) (#9211), cleaved caspase-3 (Asp175) (#9661), PARP (#9542), caspase-9 (#9502), LC3B (#2775), p38 MAPK (#9212), rabbit monoclonal antibody to cleaved caspase-7 (Asp198) (D6H1) (#8438), mouse monoclonal antibodies to phospho-ATM (Ser1981) (D6H9) (#5883), Cyclin B1 (V152) (#4135), Caspase-8 (1C12) (#9746), SQSTM1/p62 (D5L7G) (#88588) from Cell Signaling Technology (Massachusetts, USA); mouse monoclonal antibody to p53 (DO-1) (sc-126), rabbit polyclonal antibodies to p21 (C-19) (sc-397), cyclin A (H-432) (sc-751), cyclin B1 (H-433)(sc-752), PARP-1 (H-250) (sc-7150) from Santa Cruz Biotechnology (Texas, USA); rabbit polyclonal antibody to p38 MAP kinase (M0800) from Sigma Aldrich. After primary antibody incubation, membranes were incubated with goat anti-rabbit or goat anti-mouse HRP-conjugated secondary antibodies (Bio-Rad Laboratories, California, USA). Antibody reactive proteins were visualized by enhanced chemiluminescence using SuperSignal West Pico Chemiluminescent Substrate Kit (Thermo Fisher Scientific) or WesternBright ECL HRP Substrate Kit (Advansta, California, USA). Densitometry readings were obtained using ImageJ v1.50i[58] and protein expression levels were represented as a ratio of protein of interest/p38 loading control normalized to the vehicletreated control sample where appropriate. All blots are representative of at least two independent repeats.
Cells were seeded and treated for 24 h with IC50 AJ-5, vehicle or 0.5 µM (IC50) doxorubicin which was included and as a positive control. […]

Assay [3] has as its system RH30 and RD cells. Put plainly: Annexin V-FITC/PI assay. The conditions noted are these: IC50. The procedure: Cells were seeded, trypsinized, washed and counted as described for cell cycle analysis. The FITC Annexin V/Dead Cell Apoptosis kit (V13242; Thermo Fisher Scientific) was used according to the manufacturer's instructions. A negative control of unstained cells and positive controls of cells treated with 3% formaldehyde for 30 min on ice and stained with either PI or Annexin V were used to gate the flow cytometer for viable, early apoptotic, late apoptotic, and necrotic cell populations. Samples were subjected to FACS analyses as described for cell cycle analysis. Data were obtained and analysed using CellQuest Pro version 5.2.1. software.

A further assay relates to aRMS and eRMS cells. Nature of the assay: MTT cell viability assay, RMS cell lines (summary statements). Conditions: alveolar and embryonal RMS cells. The procedure:
as §1, §2

As to `CC(C)c1cccc(C(C)C)c1[N+]1=Cc2cccc[c]2[Pd-2]1([Cl])[P+](CC[P+](c1ccccc1)(c1ccccc1)[Pd-2]1([Cl])[c]2ccccc2C=[N+]1c1c(C(C)C)cccc1C(C)C)(c1ccccc1)c1ccccc1` (centres unmarked) [AJ-5], the IC50 in the assay on RH30 cells was ≤ 200 nM; with aRMS and eRMS cells it was ≤ 200 nM. For the same compound, the Cell cycle progression entry in the assay with RH30 and RD cells [1] (IC50, 24 and 48 h, FACS) is “induces a G1 cell cycle arrest”. In addition, in the assay with RH30 and RD cells [1] (western blotting), the “Levels of cyclin A and cyclin B” value is recorded as “decrease”. Besides, in assay [2] (RD cells, 24 h, IC50 AJ-5 vs 0.5 µM doxorubicin), the “Activation of caspases-8 and -9 compared with IC50 doxorubicin” value is reported as “more robustly activated”. In addition, in assay [2] (RH30 and RD), the “Active (cleaved) caspases-3/7 and cleaved PARP” value is “increased levels”. For the same compound, the “Cleaved caspase-8 and caspase-9” value in assay [2] (RH30 and RD, western blotting and Caspase-Glo) was “increased levels and activity”. In the assay on RH30 and RD cells [3], the “Cell death (Annexin V-FITC/PI)” value was “induces apoptotic and necrotic cell death”.

The IC50 is the midpoint of a concentration-inhibition curve. High values mean lower potency, low ones higher potency.

For the origin of these results see paper PMC6349869, “The palladacycle complex AJ-5 induces apoptotic cell death while reducing autophagic flux in rhabdomyosarcoma cells” (Cell Death Discovery, 2019).
